According to article PMC8881610 (Nature Communications, 2022):
Like-named read-outs stand apart in the source and are kept apart here. Where a SMILES comes first, the peptide text is derived from it. [ ]: non-standard residue; d: D form. Aib = CC(C)(N)C(=O)O

Assays:
[1] = molecular target: T1, GIPR (Homo sapiens, UniProt P48546); test: cAMP accumulation assay (LANCE Ultra cAMP kit), GIPR WT, mutant or modified constructs; format: cell-based; parameters: acylated tirzepatide to the full-length or modified; Flag; expressed in transfected cells; host or cells: HEK293T; details: for EC50 / Emax: HEK293T; for Emax: HEK-293T
T1 sequence (P48546 22-466): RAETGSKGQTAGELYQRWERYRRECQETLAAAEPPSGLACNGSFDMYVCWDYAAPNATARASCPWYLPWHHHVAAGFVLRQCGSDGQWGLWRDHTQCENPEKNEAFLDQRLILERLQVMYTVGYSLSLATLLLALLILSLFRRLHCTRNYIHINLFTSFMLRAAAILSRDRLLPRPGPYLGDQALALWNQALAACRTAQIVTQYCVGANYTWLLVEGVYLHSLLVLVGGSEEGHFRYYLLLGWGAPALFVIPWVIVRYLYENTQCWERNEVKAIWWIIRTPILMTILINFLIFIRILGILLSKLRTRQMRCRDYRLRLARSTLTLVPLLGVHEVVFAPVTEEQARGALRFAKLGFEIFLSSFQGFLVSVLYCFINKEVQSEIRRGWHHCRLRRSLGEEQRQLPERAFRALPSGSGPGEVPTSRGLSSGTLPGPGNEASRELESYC
Experimental: (§1) Human embryonic kidney 293 cells containing SV40 large T-antigen (HEK293T) were cultured in DMEM (Gibco) supplemented with 10% (v/v) fetal bovine serum (FBS, Gibco), 1 mM sodium pyruvate (Gibco) and 100 units/mL penicillin and 100 μg/mL streptomycin at 37 °C in 5% CO2. Chinese hamster ovary (CHO-K1) cells were cultured in F-12 (Gibco) containing 10% FBS, 100 units/mL penicillin and 100 μg/mL streptomycin at 37 °C in 5% CO2. For cAMP and receptor expression assays, HEK293T cells were seeded into 6-well cell culture plates at a density of 7 × 10^5 cells per well. After overnight incubation, cells were transfected with GIPR, GLP-1R or GCGR construct using Lipofectamine 2000 or Lipofectamine 3000 transfection reagent (Invitrogen). For whole-cell binding assay, CHO-K1 cells were seeded into 96-well fibronectin-treated cell culture plates at a density of 3 × 10^4 cells per well. After overnight incubation, cells were transfected with GIPR, GLP-1R or GCGR construct using Lipofectamine 2000 transfection reagent (Invitrogen). Following 24 h culturing, the transfected cells were ready for use.
A BRIL fusion protein was added at the N-terminal of the ECD with a TEV protease site and 2GSA linker between them. C-terminal 45 amino acids (Q422-C466) of the receptor were truncated. LgBiT was added at the end of helix 8 with a 15-amino acid (15AA) polypeptide linker in between, followed by a TEV protease cleavage site and an OMBP-MBP tag. […] The construct and various mutants of human GIPR were cloned into pcDNA3.1 vector for cAMP accumulation and whole-cell binding assays.
For GIPR, GLP-1R and GCGR, multi-targeting agonist stimulated cAMP accumulation was measured by a LANCE Ultra cAMP kit (PerkinElmer). After 24 h culture, the transfected cells were seeded into 384-well microtiter plates at a density of 3,000 cells per well in HBSS supplemented with 5 mM HEPES, 0.1% (w/v) BSA or 0.1% (w/v) casein and 0.5 mM 3-isobutyl-1-methylxanthine. The cells were stimulated with different concentrations of peptide agonists for 40 min at RT. Eu-cAMP tracer and ULight^TM-anti-cAMP were then diluted by cAMP detection buffer and added to the plates separately to terminate the reaction. Plates were incubated at RT for 1 h and the fluorescence intensity measured at 620 nm and […] by an EnVision multilabel plate reader (PerkinElmer).

[2] = molecular target: T2, GLP-1R (Homo sapiens, UniProt P43220); test: Whole-cell binding assay, competition with 125I-GLP-1(7-36)NH2; parameters: Flag; expressed in transfected cells
T2 sequence (P43220 24-463): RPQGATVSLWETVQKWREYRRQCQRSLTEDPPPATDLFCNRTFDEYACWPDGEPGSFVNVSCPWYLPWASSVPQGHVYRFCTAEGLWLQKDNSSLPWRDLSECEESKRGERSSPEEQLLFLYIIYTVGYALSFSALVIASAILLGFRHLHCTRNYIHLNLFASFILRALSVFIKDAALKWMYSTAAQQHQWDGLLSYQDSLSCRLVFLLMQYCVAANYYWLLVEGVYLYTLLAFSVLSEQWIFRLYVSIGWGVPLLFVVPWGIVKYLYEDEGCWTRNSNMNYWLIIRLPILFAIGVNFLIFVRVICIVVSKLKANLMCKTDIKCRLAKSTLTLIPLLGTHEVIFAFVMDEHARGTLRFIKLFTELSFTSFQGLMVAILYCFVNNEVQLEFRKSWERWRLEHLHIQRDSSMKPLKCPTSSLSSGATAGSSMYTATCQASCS
Experimental: as §1
For GLP-1R and GCGR, CHO-K1 cells (30,000 cells/well) were seeded into Isoplate-96 plates and incubated for 24 h at 37 °C in 5% CO2. The WT or mutant constructs were transiently transfected using Lipofectamine 2000 transfection reagent as previous described. They were then washed twice using F-12 with 0.1% BSA or 0.1% casein, 33 mM HEPES, and incubated for 2 h at 37 °C. […] Cells were washed three times with ice-cold PBS and lysed in PBS with 1% Triton X-100, 20 mM Tris-HCl. After addition of scintillation cocktail (PerkinElmer), radioactivity (CPM) was counted on a MicroBeta^2 microplate counter (PerkinElmer). Data were normalized to the WT response and analyzed using three-parameter logistic equation.

[3] = molecular target: T2, GLP-1R; test: β-arrestin 2 recruitment (BRET); format: cell-based; parameters: expressed in transfected cells; host or cells: HEK293T; details: HEK-293T, GLP-1R WT, HEK293T
Experimental: HEK293T cells (3.2 × 10^6 cells/10 cm plate) were grown for 24 h before transiently transfection with 15 μg plasmid containing GIPR, GLP-1R or GCGR tagged with Rluc8 and β-arrestin 2 with a Venus-tag at the N terminus at a ratio of 1:9 by Lipofectamine 3000 transfection reagent. After cells were grown for 24 h, transiently transfected cells were then seeded onto poly-D-lysine coated 96-well culture plates (50,000 cells/well) in DMEM with 10% FBS. Cells were grown for 20 h before incubation in assay buffer (HBSS supplemented with 10 mM HEPES, 0.1% BSA or 0.1% casein, pH 7.4) for 30 min at 37 °C. Coelentrazine-h (Yeasen Biotech) was added to a final concentration of 5 μM for 5 min before bioluminescence resonance energy transfer (BRET) readings were made using an EnVision plate reader (PerkinElmer). BRET baseline measurements were collected for 15 cycles prior to ligand addition. After which, BRET was measured for 55 cycles.

[4] = GIPR WT, read-out: cAMP pEC50 (converted)
[5] = GIPR, n = 4, SEM, read-out: cAMP pEC50 ± S.E.M. (converted)
[6] = GIPR WT, 0.1% BSA, read-out: cAMP accumulation Emax
[7] = GIPR WT, 0.1% casein, read-out: cAMP accumulation Emax

SMILES	EC50 [1, 4] [nM]	EC50 [1, 5] [nM]	IC50 ([2]; Fig. 7c receptor binding profile, n = 3 in duplicate, SEM, read-out: GLP-1R (pIC50 ± S.E.M.) (converted)) [nM]	binding Span ([2]; GLP-1R WT, 0.1% casein, CHO-K1)	binding Span ([2]; GLP-1R WT, CHO-K1) [% WT]	IC50 ([2]; GLP-1R WT, CHO-K1, read-out: binding pIC50 (converted)) [nM]	Emax [1, 6] [%]	Emax [1, 7] [%]	Emax ([1]; GIPR WT, read-out: cAMP Emax) [%]	Emax ([1]; GIPR, n = 4, SEM, read-out: cAMP Emax ± S.E.M.) [%]	Emax ([3]; 0.1% BSA) [%]	Emax ([3]; 0.1% casein) [%]	decrease of binding ability (IC50) vs peptide 20 ([2]; GLP-1R, 0.1% casein or 0.1% BSA)	reduction of cAMP accumulation vs peptide 20 ([1]; GIPR, 0.1% BSA)	EC50 for cAMP accumulation relative to peptide 20 ([1]; GIPR, 0.1% casein) [fold]
CC[C@H](C)[C@H](NC(=O)[C@H](CC(C)C)NC(=O)[C@H](Cc1c[nH]c2ccccc12)NC(=O)[C@H](CCC(N)=O)NC(=O)[C@@H](NC(=O)[C@H](Cc1ccccc1)NC(=O)[C@H](C)NC(=O)[C@H](CCCCNC(=O)COCCOCCNC(=O)COCCOCCNC(=O)CC[C@H](NC(=O)CCCCCCCCCCCCCCCCCCC(=O)O)C(=O)O)NC(=O)[C@H](CCC(N)=O)NC(=O)[C@H](C)NC(=O)[C@@H](NC(=O)[C@H](CCCCN)NC(=O)[C@H](CC(=O)O)NC(=O)[C@H](CC(C)C)NC(=O)C(C)(C)NC(=O)[C@@H](NC(=O)[C@H](CO)NC(=O)[C@H](Cc1ccc(O)cc1)NC(=O)[C@H](CC(=O)O)NC(=O)[C@H](CO)NC(=O)[C@@H](NC(=O)[C@H](Cc1ccccc1)NC(=O)[C@@H](NC(=O)CNC(=O)[C@H](CCC(=O)O)NC(=O)C(C)(C)NC(=O)[C@@H](N)Cc1ccc(O)cc1)[C@@H](C)O)[C@@H](C)O)[C@@H](C)CC)[C@@H](C)CC)C(C)C)C(=O)N[C@@H](C)C(=O)NCC(=O)NCC(=O)N1CCC[C@H]1C(=O)N[C@@H](CO)C(=O)N[C@@H](CO)C(=O)NCC(=O)N[C@@H](C)C(=O)N1CCC[C@H]1C(=O)N1CCC[C@H]1C(=O)N1CCC[C@H]1C(=O)N[C@@H](CO)C(N)=O [Tirzepatide]	0.0288	0.0126													
CCCCCCCCCCCCCCCC(=O)N[C@@H](CCC(=O)NCCCC[C@H](NC(=O)[C@H](CC(=O)O)NC(=O)[C@H](CO)NC(=O)[C@@H](NC(=O)[C@H](Cc1ccccc1)NC(=O)[C@@H](NC(=O)CNC(=O)[C@H](CCC(N)=O)NC(=O)C(C)(C)NC(=O)[C@@H](N)Cc1c[nH]cn1)[C@@H](C)O)[C@@H](C)O)C(=O)N[C@@H](CO)C(=O)N[C@@H](CCCCN)C(=O)N[C@@H](Cc1ccc(O)cc1)C(=O)N[C@@H](CC(C)C)C(=O)N[C@@H](CC(=O)O)C(=O)N[C@@H](CCC(=O)O)C(=O)N[C@@H](CCCNC(=N)N)C(=O)N[C@@H](C)C(=O)N[C@@H](C)C(=O)N[C@@H](CCC(N)=O)C(=O)N[C@@H](CC(=O)O)C(=O)N[C@@H](Cc1ccccc1)C(=O)N[C@H](C(=O)N[C@@H](CCC(N)=O)C(=O)N[C@@H](Cc1c[nH]c2ccccc12)C(=O)N[C@@H](CC(C)C)C(=O)N[C@@H](CC(C)C)C(=O)N[C@@H](CC(=O)O)C(=O)NCC(=O)NCC(=O)N1CCC[C@H]1C(=O)N[C@@H](CO)C(=O)N[C@@H](CO)C(=O)NCC(=O)N[C@@H](C)C(=O)N1CCC[C@H]1C(=O)N1CCC[C@H]1C(=O)N1CCC[C@H]1C(=O)N[C@@H](CO)C(N)=O)C(C)C)C(=O)O [Peptide 20]	0.0135	0.00447	3.39	85.25 ± 8.33	99.44 ± 2.88	6.17	99.9 ± 1.18	100 ± 1.51	99.2 ± 1.85	100 ± 1.48	73.5 ± 1.86	81 ± 1.28			
CC(C)C[C@H](NC(=O)[C@H](CC(C)C)NC(=O)[C@H](Cc1c[nH]c2ccccc12)NC(=O)[C@H](CCC(N)=O)NC(=O)[C@@H](NC(=O)[C@H](Cc1ccccc1)NC(=O)[C@H](CC(=O)O)NC(=O)[C@H](CCC(N)=O)NC(=O)[C@H](C)NC(=O)[C@H](C)NC(=O)[C@H](CCCNC(=N)N)NC(=O)[C@H](CCC(=O)O)NC(=O)[C@H](CC(=O)O)NC(=O)[C@H](CC(C)C)NC(=O)[C@H](Cc1ccc(O)cc1)NC(=O)[C@H](CCCCN)NC(=O)[C@H](CO)NC(=O)[C@H](CCCCN)NC(=O)[C@H](CC(=O)O)NC(=O)[C@H](CO)NC(=O)[C@@H](NC(=O)[C@H](Cc1ccccc1)NC(=O)[C@@H](NC(=O)CNC(=O)[C@H](CCC(N)=O)NC(=O)C(C)(C)NC(=O)[C@@H](N)Cc1c[nH]cn1)[C@@H](C)O)[C@@H](C)O)C(C)C)C(=O)N[C@@H](CC(=O)O)C(=O)NCC(=O)NCC(=O)N1CCC[C@H]1C(=O)N[C@@H](CO)C(=O)N[C@@H](CO)C(=O)NCC(=O)N[C@@H](C)C(=O)N1CCC[C@H]1C(=O)N1CCC[C@H]1C(=O)N1CCC[C@H]1C(=O)N[C@@H](CO)C(N)=O [Non-lipidated peptide 20] (H-H[Aib]QGTFTSDKSKYLDERAAQDFVQWLLDGGPSSGAPPPS-NH2; N-terminus and C-terminus assumed)							99.4 ± 6.44	88.5 ± 6.52			65.4 ± 1.04	64.3 ± 3.97	3- to 17 fold	1,288 fold	−871
